From ChEMBL document CHEMBL5465560, “Selectivity Literature for EUbOPEN Chemogenomic Library” (2024)

Experiments:
[1] = target: Serine/threonine-protein kinase/endoribonuclease IRE1 (Homo sapiens) (UniProt O75460); experiment: Selectivity interaction (KinomeScan (DiscoverX)) EUB0001049a ERN1; conditions: at 1 µM
[2] = target: Casein kinase II subunit alpha' (Homo sapiens) (UniProt P19784); experiment: Selectivity interaction (KinomeScan (DiscoverX)) EUB0000229b CSNK2A2; conditions: at 10 µM
[3] = target: T1, Serine/threonine-protein kinase TNNI3K (Homo sapiens) (UniProt Q59H18); experiment: Selectivity interaction (KinomeScan (DiscoverX)) EUB0001079a TNNI3K; conditions: at 1 µM
T1 sequence (whole entry): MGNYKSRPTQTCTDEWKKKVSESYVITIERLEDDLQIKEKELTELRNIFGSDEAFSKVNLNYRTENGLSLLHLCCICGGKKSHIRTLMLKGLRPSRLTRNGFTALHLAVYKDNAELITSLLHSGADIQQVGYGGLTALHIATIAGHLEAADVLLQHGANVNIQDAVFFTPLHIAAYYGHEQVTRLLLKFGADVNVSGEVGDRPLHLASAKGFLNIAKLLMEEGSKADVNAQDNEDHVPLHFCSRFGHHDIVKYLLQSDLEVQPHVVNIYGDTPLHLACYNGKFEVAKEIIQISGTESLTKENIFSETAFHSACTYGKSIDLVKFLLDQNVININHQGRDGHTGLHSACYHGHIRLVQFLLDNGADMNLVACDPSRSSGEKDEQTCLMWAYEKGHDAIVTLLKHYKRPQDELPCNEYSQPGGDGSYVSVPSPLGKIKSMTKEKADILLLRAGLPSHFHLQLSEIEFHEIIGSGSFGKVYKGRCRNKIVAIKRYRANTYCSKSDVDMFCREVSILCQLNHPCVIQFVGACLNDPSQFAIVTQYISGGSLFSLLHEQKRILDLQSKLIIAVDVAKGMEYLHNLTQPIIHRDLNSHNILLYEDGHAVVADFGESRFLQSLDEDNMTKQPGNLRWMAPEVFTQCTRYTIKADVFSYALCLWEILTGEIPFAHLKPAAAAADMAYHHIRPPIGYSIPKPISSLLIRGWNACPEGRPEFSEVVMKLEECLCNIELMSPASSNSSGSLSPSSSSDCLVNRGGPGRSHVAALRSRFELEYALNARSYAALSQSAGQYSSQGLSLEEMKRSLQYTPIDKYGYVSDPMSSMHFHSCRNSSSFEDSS

[4] = target: T2, Serine/threonine-protein kinase Nek9 (Homo sapiens) (UniProt Q8TD19); experiment: Selectivity interaction (ActivX KiNativ screen (kinase selectivity in THP-1 cell lysates)) EUB0000639a NEK9; format: subcellular; conditions: lysate, at 0.04 µM
T2 sequence (whole entry): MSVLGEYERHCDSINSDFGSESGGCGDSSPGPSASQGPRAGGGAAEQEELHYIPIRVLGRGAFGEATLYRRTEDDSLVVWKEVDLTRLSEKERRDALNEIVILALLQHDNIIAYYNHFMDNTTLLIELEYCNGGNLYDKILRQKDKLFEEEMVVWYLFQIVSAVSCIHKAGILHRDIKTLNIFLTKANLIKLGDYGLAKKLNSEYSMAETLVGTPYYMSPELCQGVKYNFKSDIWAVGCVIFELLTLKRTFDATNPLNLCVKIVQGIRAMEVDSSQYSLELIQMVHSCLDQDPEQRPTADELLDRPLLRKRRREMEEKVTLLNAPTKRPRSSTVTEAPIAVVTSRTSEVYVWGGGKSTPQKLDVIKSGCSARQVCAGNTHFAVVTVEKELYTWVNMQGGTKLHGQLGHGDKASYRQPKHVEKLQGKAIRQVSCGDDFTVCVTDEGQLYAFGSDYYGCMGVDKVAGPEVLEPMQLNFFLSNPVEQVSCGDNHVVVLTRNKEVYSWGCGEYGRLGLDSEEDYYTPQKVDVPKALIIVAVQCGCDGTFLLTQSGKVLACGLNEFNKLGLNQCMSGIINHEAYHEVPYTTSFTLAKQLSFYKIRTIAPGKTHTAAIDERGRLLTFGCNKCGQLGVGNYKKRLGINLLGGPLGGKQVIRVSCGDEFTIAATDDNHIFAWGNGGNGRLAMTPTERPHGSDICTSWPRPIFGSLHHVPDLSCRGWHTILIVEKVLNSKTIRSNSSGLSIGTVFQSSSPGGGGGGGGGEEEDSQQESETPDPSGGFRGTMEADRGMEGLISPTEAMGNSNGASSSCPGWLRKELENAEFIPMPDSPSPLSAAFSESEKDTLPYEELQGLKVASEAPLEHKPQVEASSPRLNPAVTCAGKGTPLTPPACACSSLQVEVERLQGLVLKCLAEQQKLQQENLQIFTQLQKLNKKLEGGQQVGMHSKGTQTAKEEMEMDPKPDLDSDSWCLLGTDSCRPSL

[5] = tested on: Epidermal growth factor receptor (Homo sapiens), P00533 [UNDEFINED MUTATION]; experiment: Selectivity interaction (KinomeScan (DiscoverX)) EUB0000092b EGFR; conditions: at 10 µM
[6] = target: Serine/threonine-protein kinase N2 (Homo sapiens, UniProt Q16513); experiment: Selectivity interaction (KinomeScan (DiscoverX)) EUB0000045b PKN2
[7] = target: Calcium/calmodulin-dependent protein kinase type 1D (Homo sapiens) (UniProt Q8IU85); conditions: at 10 µM
[8] = target: Serine/threonine-protein kinase 38 (Homo sapiens) (UniProt Q15208); experiment: Selectivity interaction (ActivX KiNativ screen (ex vivo kinase selectivity in human PBMCs)) EUB0001619a STK38; format: cell-based; conditions: PBMC, at 1 µM
[9] = target: T3, Rhodopsin kinase GRK7 (Homo sapiens) (UniProt Q8WTQ7); experiment: Selectivity interaction (KinomeScan (DiscoverX)) EUB0000695a GRK7; conditions: at 100 nM
T3 sequence (whole entry): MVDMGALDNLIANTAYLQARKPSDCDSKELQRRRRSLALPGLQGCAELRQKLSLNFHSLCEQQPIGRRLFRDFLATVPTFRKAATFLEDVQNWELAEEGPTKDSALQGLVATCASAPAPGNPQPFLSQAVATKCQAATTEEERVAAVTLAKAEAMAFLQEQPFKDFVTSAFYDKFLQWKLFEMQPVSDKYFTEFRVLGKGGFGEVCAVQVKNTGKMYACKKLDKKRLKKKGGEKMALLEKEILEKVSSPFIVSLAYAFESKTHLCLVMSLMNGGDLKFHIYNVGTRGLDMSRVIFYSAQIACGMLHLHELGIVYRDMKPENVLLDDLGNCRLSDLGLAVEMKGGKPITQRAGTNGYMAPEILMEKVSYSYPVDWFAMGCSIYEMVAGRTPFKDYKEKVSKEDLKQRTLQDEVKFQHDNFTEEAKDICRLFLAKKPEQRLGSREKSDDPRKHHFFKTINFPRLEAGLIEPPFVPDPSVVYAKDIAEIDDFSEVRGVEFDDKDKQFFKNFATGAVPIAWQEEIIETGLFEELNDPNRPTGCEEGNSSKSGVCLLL

[10] = target: cAMP-dependent protein kinase catalytic subunit alpha (Homo sapiens, UniProt P17612); experiment: Selectivity interaction (SelectScreen profiling (Invitrogen)) EUB0000607a PRKACA; conditions: at 2 µM

Chain of Serine/threonine-protein kinase N2 (Q16513 whole entry, looked up): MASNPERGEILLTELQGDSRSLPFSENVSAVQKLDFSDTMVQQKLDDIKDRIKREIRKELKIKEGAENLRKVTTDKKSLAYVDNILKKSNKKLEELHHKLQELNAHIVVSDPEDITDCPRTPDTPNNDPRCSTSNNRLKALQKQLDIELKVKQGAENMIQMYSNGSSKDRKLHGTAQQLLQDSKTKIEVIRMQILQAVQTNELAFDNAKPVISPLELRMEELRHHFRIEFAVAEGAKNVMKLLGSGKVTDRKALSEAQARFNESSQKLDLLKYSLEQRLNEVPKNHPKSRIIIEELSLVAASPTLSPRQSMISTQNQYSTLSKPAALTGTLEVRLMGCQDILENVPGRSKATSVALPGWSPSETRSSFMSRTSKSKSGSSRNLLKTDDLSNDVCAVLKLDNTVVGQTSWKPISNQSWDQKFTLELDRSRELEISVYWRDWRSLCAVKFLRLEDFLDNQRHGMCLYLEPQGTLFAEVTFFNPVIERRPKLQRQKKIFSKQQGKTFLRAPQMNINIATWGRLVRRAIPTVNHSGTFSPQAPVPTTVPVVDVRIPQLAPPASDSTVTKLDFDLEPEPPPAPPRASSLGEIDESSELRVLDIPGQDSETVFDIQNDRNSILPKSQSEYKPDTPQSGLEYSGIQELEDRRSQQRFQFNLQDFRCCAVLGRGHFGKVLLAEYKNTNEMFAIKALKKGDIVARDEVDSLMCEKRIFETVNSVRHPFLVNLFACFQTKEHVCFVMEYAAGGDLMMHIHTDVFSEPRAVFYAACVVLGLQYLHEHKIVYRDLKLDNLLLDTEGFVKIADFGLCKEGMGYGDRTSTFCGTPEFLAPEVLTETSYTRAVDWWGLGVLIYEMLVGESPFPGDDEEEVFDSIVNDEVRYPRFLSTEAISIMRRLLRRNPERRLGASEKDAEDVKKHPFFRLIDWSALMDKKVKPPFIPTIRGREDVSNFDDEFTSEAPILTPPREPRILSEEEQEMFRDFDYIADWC
Chain of Serine/threonine-protein kinase 38 (Homo sapiens) (Q15208 2-465 limits assumed): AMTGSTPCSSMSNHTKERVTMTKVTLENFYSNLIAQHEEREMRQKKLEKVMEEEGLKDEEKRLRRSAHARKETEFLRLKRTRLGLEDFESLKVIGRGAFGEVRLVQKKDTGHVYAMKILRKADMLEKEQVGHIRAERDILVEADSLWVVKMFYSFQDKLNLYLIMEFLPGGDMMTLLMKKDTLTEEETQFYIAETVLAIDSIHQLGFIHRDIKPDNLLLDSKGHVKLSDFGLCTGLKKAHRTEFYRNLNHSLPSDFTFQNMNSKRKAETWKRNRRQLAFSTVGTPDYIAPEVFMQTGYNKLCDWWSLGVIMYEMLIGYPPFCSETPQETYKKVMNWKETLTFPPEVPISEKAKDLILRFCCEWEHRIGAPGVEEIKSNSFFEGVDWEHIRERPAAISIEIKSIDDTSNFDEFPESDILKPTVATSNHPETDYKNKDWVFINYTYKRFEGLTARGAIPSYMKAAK
Chain of Casein kinase II subunit alpha' (Homo sapiens) (P19784 whole entry, looked up): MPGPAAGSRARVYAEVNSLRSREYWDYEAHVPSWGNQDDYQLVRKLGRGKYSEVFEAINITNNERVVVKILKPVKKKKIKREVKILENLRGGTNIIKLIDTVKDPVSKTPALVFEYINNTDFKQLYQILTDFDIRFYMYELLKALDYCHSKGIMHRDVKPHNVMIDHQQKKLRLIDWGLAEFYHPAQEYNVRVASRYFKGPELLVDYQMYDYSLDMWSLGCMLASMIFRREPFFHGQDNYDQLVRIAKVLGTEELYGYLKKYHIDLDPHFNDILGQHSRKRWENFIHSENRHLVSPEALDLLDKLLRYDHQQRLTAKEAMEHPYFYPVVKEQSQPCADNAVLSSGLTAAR
Chain of Serine/threonine-protein kinase/endoribonuclease IRE1 (Homo sapiens) (O75460 19-977 limits assumed): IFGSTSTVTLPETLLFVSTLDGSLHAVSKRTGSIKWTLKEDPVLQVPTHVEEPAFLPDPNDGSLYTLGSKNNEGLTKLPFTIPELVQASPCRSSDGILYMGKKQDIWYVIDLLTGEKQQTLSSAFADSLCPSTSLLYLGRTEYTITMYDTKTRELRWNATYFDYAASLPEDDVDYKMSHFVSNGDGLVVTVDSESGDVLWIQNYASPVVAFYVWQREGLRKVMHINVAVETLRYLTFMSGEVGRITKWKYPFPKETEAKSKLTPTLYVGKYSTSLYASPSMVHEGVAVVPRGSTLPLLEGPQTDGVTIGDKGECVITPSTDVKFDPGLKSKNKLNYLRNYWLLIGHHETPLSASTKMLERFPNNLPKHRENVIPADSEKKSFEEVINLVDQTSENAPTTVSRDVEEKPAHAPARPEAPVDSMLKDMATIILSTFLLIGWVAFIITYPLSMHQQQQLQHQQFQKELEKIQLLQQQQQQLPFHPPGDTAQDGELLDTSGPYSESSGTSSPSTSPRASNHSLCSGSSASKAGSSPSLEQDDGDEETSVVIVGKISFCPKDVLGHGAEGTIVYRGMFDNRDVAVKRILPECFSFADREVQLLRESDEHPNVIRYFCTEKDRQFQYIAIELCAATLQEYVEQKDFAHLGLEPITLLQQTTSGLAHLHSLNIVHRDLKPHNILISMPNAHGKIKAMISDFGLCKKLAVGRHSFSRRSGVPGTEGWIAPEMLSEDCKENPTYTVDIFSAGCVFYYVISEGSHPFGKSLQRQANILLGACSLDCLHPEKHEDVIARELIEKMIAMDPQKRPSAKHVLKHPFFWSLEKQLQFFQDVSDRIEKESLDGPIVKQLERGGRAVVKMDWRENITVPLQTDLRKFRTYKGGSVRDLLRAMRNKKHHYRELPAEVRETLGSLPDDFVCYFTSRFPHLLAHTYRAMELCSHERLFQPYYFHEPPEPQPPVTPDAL
Chain of Calcium/calmodulin-dependent protein kinase type 1D (Homo sapiens) (Q8IU85 whole entry, looked up): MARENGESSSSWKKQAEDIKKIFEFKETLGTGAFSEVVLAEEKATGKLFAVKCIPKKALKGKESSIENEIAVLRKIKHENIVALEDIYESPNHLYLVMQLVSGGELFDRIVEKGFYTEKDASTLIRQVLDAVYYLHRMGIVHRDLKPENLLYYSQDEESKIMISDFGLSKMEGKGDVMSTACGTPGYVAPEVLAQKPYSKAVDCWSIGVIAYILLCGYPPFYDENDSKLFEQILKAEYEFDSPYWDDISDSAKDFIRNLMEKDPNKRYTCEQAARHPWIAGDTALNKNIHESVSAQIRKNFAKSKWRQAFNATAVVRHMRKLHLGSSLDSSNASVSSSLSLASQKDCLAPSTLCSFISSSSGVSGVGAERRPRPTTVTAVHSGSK
Chain of Epidermal growth factor receptor (Homo sapiens), P00533 [UNDEFINED MUTATION] (P00533 whole entry, looked up, change not shown): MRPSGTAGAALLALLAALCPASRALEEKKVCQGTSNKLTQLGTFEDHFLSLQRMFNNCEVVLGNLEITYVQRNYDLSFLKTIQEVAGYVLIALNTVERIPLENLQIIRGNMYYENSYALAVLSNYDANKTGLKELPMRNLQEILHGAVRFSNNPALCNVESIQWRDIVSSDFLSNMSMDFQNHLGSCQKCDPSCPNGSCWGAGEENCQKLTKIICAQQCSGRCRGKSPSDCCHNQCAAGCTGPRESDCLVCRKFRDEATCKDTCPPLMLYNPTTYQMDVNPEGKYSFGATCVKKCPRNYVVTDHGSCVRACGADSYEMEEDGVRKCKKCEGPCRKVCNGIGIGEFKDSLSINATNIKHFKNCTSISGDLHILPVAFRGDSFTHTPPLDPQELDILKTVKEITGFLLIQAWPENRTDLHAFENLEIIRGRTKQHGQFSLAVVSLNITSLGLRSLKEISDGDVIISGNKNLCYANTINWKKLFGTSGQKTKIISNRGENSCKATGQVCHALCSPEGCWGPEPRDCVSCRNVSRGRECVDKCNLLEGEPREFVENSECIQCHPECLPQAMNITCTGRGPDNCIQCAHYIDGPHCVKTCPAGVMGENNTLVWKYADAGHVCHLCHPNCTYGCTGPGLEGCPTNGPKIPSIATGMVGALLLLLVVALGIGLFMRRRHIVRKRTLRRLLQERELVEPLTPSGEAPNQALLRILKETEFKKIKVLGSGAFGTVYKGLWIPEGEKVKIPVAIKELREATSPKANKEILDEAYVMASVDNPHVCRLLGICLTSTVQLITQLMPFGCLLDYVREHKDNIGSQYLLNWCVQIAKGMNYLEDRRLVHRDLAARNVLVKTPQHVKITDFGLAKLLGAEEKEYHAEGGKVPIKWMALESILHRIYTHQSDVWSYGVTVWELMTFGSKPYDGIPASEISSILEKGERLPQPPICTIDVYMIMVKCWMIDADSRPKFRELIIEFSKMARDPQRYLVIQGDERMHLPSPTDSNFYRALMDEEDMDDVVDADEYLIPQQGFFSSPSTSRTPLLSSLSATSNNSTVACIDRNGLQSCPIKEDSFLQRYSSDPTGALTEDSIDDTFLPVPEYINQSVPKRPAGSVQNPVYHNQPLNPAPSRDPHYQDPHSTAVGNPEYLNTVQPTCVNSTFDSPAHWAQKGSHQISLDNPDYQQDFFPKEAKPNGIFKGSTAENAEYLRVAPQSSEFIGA

Question: How did the % of control [1] turn out when `COc1cc(Nc2nc(C)cc(-c3cnn4nc(OC)ccc34)n2)cc(C(F)(F)F)c1` was run?
Answer: 100%

Question: Which % binding [2] does the source give for `COc1cc(N(C)c2ccnc3ccc(C(F)(F)F)cc23)cc(OC)c1OC` here?
Answer: 100%

Question: For `Nc1cnc(N2CCc3cc(S(=O)(=O)Nc4c(F)cc(Cl)cc4F)cc(N4CCCC4=O)c32)nc1` [TP-020n], which % of control [3] is on record?
Answer: 49%

Question: Which % of inhibition [4] does the source give for `CC[C@@H]1[C@H](F)C(=O)N[C@@H]1COc1nccc2cc(C(N)=O)c(OC)cc12` [ZIMLOVISERTIB] here?
Answer: 5%

Question: With `CCC(=O)N1CCN(c2ccc(-n3c(=O)ccc4cnc5ccc(-c6cnc7ccccc7c6)cc5c43)cc2C(F)(F)F)CC1` as the molecule, how does the % of control [5] read?
Answer: 80%

Question: Which results are given for `C=CC(=O)Nc1cc(-n2c(=O)ccc3cnc4ccc(-c5ccc(NS(C)(=O)=O)cc5)cc4c32)ccc1C`?
Answer: % of control ([6]; at 1 µM): 100%; % of control ([6]; at 10 µM): 100%

Question: `Cc1cc([C@@H](C)Nc2ccccc2C(=O)O)c2nc(N3CCOCC3)cc(=O)n2c1` [AZD-6482] was tested. Which % of control [7] did it give?
Answer: 100%

Question: For `N#Cc1cccc(-c2c[nH]c3ncnc(N4CCOCC4)c23)c1`, which % of inhibition [8] is on record?
Answer: 3%

Question: For `Cc1cc(F)c(C(=O)Nc2cccc(-c3nncn3C(C)C)n2)cc1-n1cnc(C2CC2)c1`, which % of control [9] is on record?
Answer: 97%

Question: Which % of inhibition [10] does the source give for `CNC(=O)Nc1ccc(-c2nc(N3CC4CCC(C3)O4)c3cnn(C4CCC5(CC4)OCCO5)c3n2)cc1` here?
Answer: -3%
